The record followed here is patent publication US11753407B2, “Compounds for treating spinal muscular atrophy” (PTC Therapeutics, Inc., priority 2012, dated 2023).

Series [1] concerns Smn protein in SMA patient fibroblast cells (GM03813). Description: Smn protein assay in cultured cells (SMN HTRF). Type of series: cell-based, human. The following applies: SMA patient fibroblast cells, 48 hours; for EC1.5x for Smn protein expression: 7-point concentration curve, SMN HTRF, concentration producing 1.5 times Smn protein vs DMSO vehicle control; for maximum fold (Fold) increase of Smn protein: 7-point concentration data, fold relative to vehicle control. The method in brief: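 SMA patient fibroblasts (5,000/well, DMEM-10% FBS) treated 48 h at 37° C with 7-point, 3.16-fold compound series in triplicate; lysates read by SMN HTRF (665/620 nm ratio). Fold Smn increase over DMSO vehicle derived; EC1.5× is concentration giving 1.5-fold Smn, with maximum fold also reported.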

Series [2] deals with SMN2 minigene mRNA (SMN2-A minigene) in HEK293H cells. Description: SMN2 minigene mRNA splicing RT-qPCR assay in cultured cells. Type of series: cell-based, human. The following applies: Homo sapiens, HEK293-H; concentration increasing full length SMN2 mRNA 1.5-fold relative to vehicle-treated cells; HEK293H cells with SMN2-A minigene, 24 hours, 7-point concentration data; read-out: EC1.5x for production of full length SMN2 mRNA. Summed up:
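HEK293H cells stably carrying SMN2-A minigene treated with compounds (7-point, 3.16-fold dilutions, duplicates) for 24 h at 37 °C. Full-length exon 7-containing minigene mRNA measured by multiplex RT-qPCR with GAPDH, normalized and expressed relative to vehicle (modified ΔΔCt); EC1.5× is concentration giving 1.5-fold increase.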

The compound `Cc1cn2cc(-c3cc(=O)n4cc(N5C[C@@H](C)N[C@@H](C)C5)ccc4n3)cc(C3CC3)c2n1` [Compound 717, 2-(8-cyclopropyl-2-methylimidazo[1,2-a]pyridin-6-yl)-7-[(3R,5S)-3,5-dimethylpiperazin-1-yl]-4H-pyrido[1,2-a]pyrimidin-4-one] yielded a melting point of 205 to 209 °C. Further, in series [1], the “EC1.5x for Smn protein expression” value was “*** (an EC1.5× between >0.3 μM and ≤1 μM is indicated by three stars (***))”; the “maximum fold (Fold) increase of Smn protein” value (shortened to “maximum fold (Fold) increase”) is on record as “***** (a fold increase >1.65 is indicated by five stars (*****))”. In addition, the EC (1.5-fold increase) in series [2] lay within 0.1 to 0.3 µM.
Regarding `Cc1cc(C2CCN(C3CC3)CC2)cn2c(=O)cc(-c3ccc4nn(C)cc4c3)nc12` [Compound 718, 7-(1-cyclopropylpiperidin-4-yl)-9-methyl-2-(2-methyl-2H-indazol-5-yl)-4H-pyrido[1,2-a]pyrimidin-4-one], the melting point fell in the range of 226 to 231 °C. For the same compound, in series [1], the “EC1.5x for Smn protein expression” value is “*** (an EC1.5× between >0.3 μM and ≤1 μM is indicated by three stars (***))”; the “maximum fold (Fold) increase” value is “**** (a fold increase between >1.5 and ≤1.65 is indicated by four stars (****))”. Also, in series [2], the EC (1.5-fold increase) was less than 0.1 µM.
The compound `CCN1CCC(c2cc(C)c3nc(-c4ccc5nn(C)cc5c4)cc(=O)n3c2)CC1` [Compound 719, 7-(1-ethylpiperidin-4-yl)-9-methyl-2-(2-methyl-2H-indazol-5-yl)-4H-pyrido[1,2-a]pyrimidin-4-one] came in with a melting point of 237 to 241 °C. Moreover, in series [1], the “EC1.5x for Smn protein expression” value is “**** (an EC1.5x≤0.3 μM is indicated by four stars (****))”; the “maximum fold (Fold) increase” value is “**** (a fold increase between >1.5 and ≤1.65 is indicated by four stars (****))”. Moreover, in series [2], the EC (1.5-fold increase) is less than 0.1 µM.
With `Cc1cn2nc(-c3cc(=O)n4cc(N5CCNCC5)cc(C)c4n3)cc2c(C)n1` [Compound 720, 2-(4,6-dimethylpyrazolo[1,5-a]pyrazin-2-yl)-9-methyl-7-(piperazin-1-yl)-4H-pyrido[1,2-a]pyrimidin-4-one], the melting point was in the range of 254 to 264 °C. In addition, in series [1], the “EC1.5x for Smn protein expression” value was “**** (an EC1.5x≤0.3 μM is indicated by four stars (****))” and the “maximum fold (Fold) increase” value is on record as “***** (a fold increase >1.65 is indicated by five stars (*****))”. The EC (1.5-fold increase) in series [2] was less than 0.1 µM.
The corresponding values for `Cc1cc(C2CCNCC2)cn2c(=O)cc(-c3ccc4nn(C)cc4c3)nc12` [Compound 721, 9-methyl-2-(2-methyl-2H-indazol-5-yl)-7-(piperidin-4-yl)-4H-pyrido[1,2-a]pyrimidin-4-one] are 211 °C, “**** (an EC1.5x≤0.3 μM is indicated by four stars (****))”, “***** (a fold increase >1.65 is indicated by five stars (*****))” and less than 0.1 µM.
Turning to `Cc1cn2nc(-c3cc(=O)n4cc(OC5CCN(C)CC5)ccc4n3)cc2c(C)n1` [Compound 722, 2-(4,6-dimethylpyrazolo[1,5-a]pyrazin-2-yl)-7-[(1-methylpiperidin-4-yl)oxy]-4H-pyrido[1,2-a]pyrimidin-4-one], the melting point fell in the range of 249 to 252 °C. For the same compound, in series [1], the “EC1.5x for Smn protein expression” value is “**** (an EC1.5x≤0.3 μM is indicated by four stars (****))” and the “maximum fold (Fold) increase” value was “***** (a fold increase >1.65 is indicated by five stars (*****))”. The EC (1.5-fold increase) in series [2] was less than 0.1 µM.
On the same counts, the results for `CCCc1nc(C)cn2nc(-c3cc(=O)n4cc(N5CCNCC5)ccc4n3)cc12` [Compound 723, 2-(6-methyl-4-propylpyrazolo[1,5-a]pyrazin-2-yl)-7-(piperazin-1-yl)-4H-pyrido[1,2-a]pyrimidin-4-one] are 250 to 252 °C, “**** (an EC1.5x≤0.3 μM is indicated by four stars (****))”, “***** (a fold increase >1.65 is indicated by five stars (*****))” and less than 0.1 µM.
On to `CCCc1nc(C)cn2nc(-c3cc(=O)n4cc(N5CCN(C)CC5)ccc4n3)cc12` [Compound 724, 7-(4-methylpiperazin-1-yl)-2-(6-methyl-4-propylpyrazolo[1,5-a]pyrazin-2-yl)-4H-pyrido[1,2-a]pyrimidin-4-one], for which the melting point lay in the range of 246 to 248 °C. Also, in series [1], the “EC1.5x for Smn protein expression” value was “*** (an EC1.5× between >0.3 μM and ≤1 μM is indicated by three stars (***))”; the “maximum fold (Fold) increase” value is given as “***** (a fold increase >1.65 is indicated by five stars (*****))”. Also, the EC (1.5-fold increase) in series [2] lay within 0.3 to 1 µM.
`CCCc1nc(C)cn2nc(-c3cc(=O)n4cc(N5CCN(CC)CC5)ccc4n3)cc12` [Compound 725, 7-(4-ethylpiperazin-1-yl)-2-(6-methyl-4-propylpyrazolo[1,5-a]pyrazin-2-yl)-4H-pyrido[1,2-a]pyrimidin-4-one] showed a melting point of 231 to 233 °C. In addition, in series [1], the “EC1.5x for Smn protein expression” value is “*** (an EC1.5× between >0.3 μM and ≤1 μM is indicated by three stars (***))”; the “maximum fold (Fold) increase” value was “***** (a fold increase >1.65 is indicated by five stars (*****))”. Moreover, the EC (1.5-fold increase) in series [2] lay within 0.1 to 0.3 µM.
Compound `CCCc1nc(C)cn2nc(-c3cc(=O)n4cc(N5CCN(CCO)CC5)ccc4n3)cc12` [Compound 726, 7-[4-(2-hydroxyethyl)piperazin-1-yl]-2-(6-methyl-4-propylpyrazolo[1,5-a]pyrazin-2-yl)-4H-pyrido[1,2-a]pyrimidin-4-one] registered a melting point of 225 to 227 °C. For the same compound, in series [1], the “EC1.5x for Smn protein expression” value is “** (an EC1.5× between >1 μM and ≤3 μM is indicated by two stars (**))”; the “maximum fold (Fold) increase” value is “**** (a fold increase between >1.5 and ≤1.65 is indicated by four stars (****))”. Also, the EC (1.5-fold increase) in series [2] was 0.3 to 1 µM.
In turn, `CCCc1nc(C)cn2nc(-c3cc(=O)n4cc(N5CCN[C@H](C)C5)ccc4n3)cc12` [Compound 727, 7-[(3R)-3-methylpiperazin-1-yl]-2-(6-methyl-4-propylpyrazolo[1,5-a]pyrazin-2-yl)-4H-pyrido[1,2-a]pyrimidin-4-one] yielded a melting point of 195 to 197 °C. Also, in series [1], the “EC1.5x for Smn protein expression” value is “**** (an EC1.5x≤0.3 μM is indicated by four stars (****))” and the “maximum fold (Fold) increase” value is reported as “***** (a fold increase >1.65 is indicated by five stars (*****))”. The EC (1.5-fold increase) in series [2] is less than 0.1 µM.
`CCCc1nc(C)cn2nc(-c3cc(=O)n4cc(N5CCN[C@@H](C)C5)ccc4n3)cc12` [Compound 728, 7-[(3S)-3-methylpiperazin-1-yl]-2-(6-methyl-4-propylpyrazolo[1,5-a]pyrazin-2-yl)-4H-pyrido[1,2-a]pyrimidin-4-one] showed a melting point of 195 to 197 °C. For the same compound, in series [1], the “EC1.5x for Smn protein expression” value is “**** (an EC1.5x≤0.3 μM is indicated by four stars (****))” and the “maximum fold (Fold) increase” value is reported as “***** (a fold increase >1.65 is indicated by five stars (*****))”. The EC (1.5-fold increase) in series [2] lay in the range of 0.1 to 0.3 µM.
